# Experimental data as given in article PMC5897531, “Identification of an Alarm Pheromone-Binding Chemosensory Protein From the Invasive Sycamore Lace Bug Corythucha ciliata (Say)” (Frontiers in Physiology, 2018).
# Where two headings read alike, the source gives them in different places. Marks after values point to notes of the source that are not given here.
# Legend:
# CcilCSP2 = CcilCSP2 (Corythucha ciliata, UniProt A0A2S0M1B9); experiment: Fluorescence competitive binding assay with 1-NPN
# Experimental: Briefly, the sequence of CcilCSP2 encoding the mature CSP protein was expressed in Escherichia coli BL21 (DE3) competent cells (Transgen). Cells were grown at 37°C until OD600 ≈ 0.60, when expression was induced with 1 mM IPTG. After incubating an additional 8 h at 28°C, cells were harvested by centrifugation. The purification of CcilCSP2 was performed using HisTrap affinity columns (GE Healthcare Biosciences, Uppsala, Sweden).
# sycamore lace bug nymphs [1] = experiment: Petri dish test, behavioral response of nymphs; type: in vivo, Corythucha ciliata; conditions: for Chi-square value, choice of nymphs: compound vs. hexane, 20 μl on filter paper, 5 min; for behavioral response of nymphs: petri dish
# Experimental: One test was conducted in a petri dish (15 cm diameter) at 22–26°C. Two filter papers (3 cm diameter) were placed symmetrically on both sides of the petri dish. 20 μl of the compound to be tested (1, 0.1 or 0.01 μg/μl) was added to one filter paper. 20 μl hexane was added as a control to the other filter paper. The filter papers were placed at a distance of 5 cm from the start position at the center of the petri dish where 40 sycamore lace bug nymphs were released. The number of nymphs on each filter paper was recorded after 5 min. Each assay was replicated four times with a new petri dish for each replicate. The choice between hexane and a blank was also tested. […] The numbers of insect on each filter paper were compared using chi-square analysis.
# sycamore lace bug adults = experiment: Y-shaped olfactometer, behavioral response of adults; type: in vivo, Corythucha ciliata; conditions: Y-tube; for χ2, choice of adults: P > 0.05; for behavioral response of adults: 1 and 0.1 μg/μl
# Experimental: Compounds that potentially bind with high affinity to CSPs were purchased from Sigma (St Louis, MO, USA) to test their effects on sycamore lace bug behavior. The behavioral response of sycamore lace bug adults (1:1 sex ratio) was assessed using a Y-shaped olfactometer. The length of the arms and the diameter of the tube were 10 and 5 cm, respectively. The authentic standards were dissolved in hexane at concentrations of 1 and 0.1 μg/μl. Then 10 μl of solution was applied to a 1 cm^2 filter paper. The filter paper was placed in one arm of the Y-shaped olfactometer, and 10 μl hexane was placed in the other arm as a control. The amount of airflow was set at 250 ml/min. In each experiment, a single sycamore lace bug adult was released at the base of the olfactometer stem and observed for 10 min. During this time, insects not making any choice were recorded as having “no response”. Insects entering more than halfway into the olfactometer arm and staying for at least 10 s were recorded as having a “response”. After 10 insects were tested, the orientation of the Y-shaped olfactometer was reversed to avoid environmental effects, and the inner wall was cleaned with degreased cotton containing acetone, washed with ethanol, and then washed with distilled water and dried in an oven. The experiment was conducted in a behavioral observation chamber at 26°C. The experiment was repeated seven times, and each time the behavior of 10 insects was tested. The choice of insects between chemicals and hexane was compared using chi-square analysis.
# sycamore lace bug nymphs [2] = experiment: Plant leaf test, repellency rate of nymphs; type: in vivo, Corythucha ciliata; conditions: for behavioral response of nymphs: plant leaves
# Experimental: To further confirm the behavioral effects of each active substance, the behavioral response of sycamore lace bug nymphs was tested by directly applying the compounds to a P. × acerifolia leaf. […] Photographs were then taken at 0, 2, and 4 min to assess the repellency rate, which was calculated using the following formula: Repellency rate = M/T^*100, where T = the total number of sycamore lace bug nymphs in the tested colony at 0 min, and M = the number of sycamore lace bug nymphs that had moved at 2 or 4 min. Experimental conditions were the same as for the petri dish experiments. Hexane was used as the mock treatment. The repellency rates of the nymphs in each treatment were compared using a Kruskal Wallis H-test followed by Mann-Whitney U-tests.
# sycamore lace bug nymphs [3] = experiment: Petri dish test, behavioral response of nymphs; type: in vivo, Corythucha ciliata; conditions: Geraniol vs. Phenyl benzoate
# c18915_g1 = target: T1, c18915_g1 (Corythucha ciliata, UniProt A0A2S0M1C0); experiment: direct fluorescence titration; type: binding; conditions: fluorescent probe; conditions presumably as for CcilCSP2
# T1 construct: gene CSP8; full length 133 aa
# T1 sequence (A0A2S0M1C0 22-133): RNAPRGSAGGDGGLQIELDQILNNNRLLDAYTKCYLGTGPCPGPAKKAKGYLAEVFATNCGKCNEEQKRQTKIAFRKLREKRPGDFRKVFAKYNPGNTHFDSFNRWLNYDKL
# Chain of CcilCSP2 (A0A2S0M1B9 entry or part of it): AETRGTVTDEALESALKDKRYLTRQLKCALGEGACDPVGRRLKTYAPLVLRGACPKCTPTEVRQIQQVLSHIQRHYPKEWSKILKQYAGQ
compound,measurement,setting,value
"c1ccc(Nc2cccc3ccccc23)cc1 [1-NPN, N-Phenyl-1-naphthylamine]",Kd,CcilCSP2,2.08 µM
c1ccc2ccccc2c1 [Naphthalene],"Chi-square value, choice of nymphs",sycamore lace bug nymphs [1]; 0.01 μg/μl,0.243
same,"Chi-square value, choice of nymphs",sycamore lace bug nymphs [1]; 0.1 μg/μl,1.190
same,"Chi-square value, choice of nymphs",sycamore lace bug nymphs [1]; 1 μg/μl,0.333
"CC(C)=CCC/C(C)=C/CO [Geraniol, E-3,7-dimethyl-2,6-octadien-1-ol, reference compound]","χ2, choice of adults",sycamore lace bug adults; 0.1 μg/μl vs. hexane,1.52
same,"χ2, choice of adults",sycamore lace bug adults; 1 μg/μl vs. hexane,0.069
same,behavioral response of adults,sycamore lace bug adults,not significantly affected
same,Kd,CcilCSP2,15.2 µM
same,Displacement of 1-NPN,CcilCSP2; competitive binding,more than 50%
same,repellency rate,"sycamore lace bug nymphs [2]; 2 min, 0.01 μg/μl",25%^*
same,repellency rate,"sycamore lace bug nymphs [2]; 2 min, 0.1 μg/μl",50%^*
same,repellency rate,"sycamore lace bug nymphs [2]; 2 min, 1 μg/μl",72.41%^*
same,repellency rate,"sycamore lace bug nymphs [2]; 4 min, 0.01 μg/μl",25%^*
same,repellency rate,"sycamore lace bug nymphs [2]; 4 min, 0.1 μg/μl",57.14%^*
same,repellency rate,"sycamore lace bug nymphs [2]; 4 min, 1 μg/μl",79.41%^*
same,behavioral response of nymphs,sycamore lace bug nymphs [2],significantly repelled
same,"Chi-square value, choice of nymphs",sycamore lace bug nymphs [1]; 0.01 μg/μl,5.444^a^*
same,"Chi-square value, choice of nymphs",sycamore lace bug nymphs [1]; 0.1 μg/μl,10.965^**
same,"Chi-square value, choice of nymphs",sycamore lace bug nymphs [1]; 1 μg/μl,13.928^**
same,behavioral response of nymphs,sycamore lace bug nymphs [1],significantly repelled
same,"Chi-square value, choice of nymphs",sycamore lace bug nymphs [3]; 0.01 μg/μl,0.214
same,"Chi-square value, choice of nymphs",sycamore lace bug nymphs [3]; 0.1 μg/μl,0.267
same,"Chi-square value, choice of nymphs",sycamore lace bug nymphs [3]; 1 μg/μl,0.083
Cc1ccc(C(C)C)c(O)c1 [Thymol],"Chi-square value, choice of nymphs",sycamore lace bug nymphs [1]; 0.01 μg/μl,0.400
same,"Chi-square value, choice of nymphs",sycamore lace bug nymphs [1]; 0.1 μg/μl,0.111
same,"Chi-square value, choice of nymphs",sycamore lace bug nymphs [1]; 1 μg/μl,0.125
O=C(Oc1ccccc1)c1ccccc1 [Phenyl benzoate],"χ2, choice of adults",sycamore lace bug adults; 0.1 μg/μl vs. hexane,0.083
same,"χ2, choice of adults",sycamore lace bug adults; 1 μg/μl vs. hexane,0.176
same,behavioral response of adults,sycamore lace bug adults,not significant
same,Displacement of 1-NPN,CcilCSP2; competitive binding,more than 50%
same,Kd,"CcilCSP2; competitive binding, 1-NPN as fluorescent reporter, calculated from IC50, read-out: KD",13.9 µM
same,repellency rate,"sycamore lace bug nymphs [2]; 2 min, 0.01 μg/μl",12%
same,repellency rate,"sycamore lace bug nymphs [2]; 2 min, 0.1 μg/μl",50%^*
same,repellency rate,"sycamore lace bug nymphs [2]; 2 min, 1 μg/μl",63.16%^*
same,repellency rate,"sycamore lace bug nymphs [2]; 4 min, 0.01 μg/μl",13%
same,repellency rate,"sycamore lace bug nymphs [2]; 4 min, 0.1 μg/μl",57.14%^*
same,repellency rate,"sycamore lace bug nymphs [2]; 4 min, 1 μg/μl",73.68%^*
same,behavioral response of nymphs,sycamore lace bug nymphs [2],repellent effect of phenyl benzoate was further confirmed
same,"Chi-square value, choice of nymphs",sycamore lace bug nymphs [1]; 0.01 μg/μl,0.615
same,"Chi-square value, choice of nymphs",sycamore lace bug nymphs [1]; 0.1 μg/μl,14.629^**
same,"Chi-square value, choice of nymphs",sycamore lace bug nymphs [1]; 1 μg/μl,5.818^*
same,behavioral response of nymphs,sycamore lace bug nymphs [1],significantly repelled
c1ccc(Nc2cccc3ccccc23)cc1 [1-NPN],Kd,c18915_g1,Affinity of c18915_g1 for 1-NPN
Cc1ccc(C(C)C)cc1 [p-Cymene],"Chi-square value, choice of nymphs",sycamore lace bug nymphs [1]; 0.01 μg/μl,0.083
same,"Chi-square value, choice of nymphs",sycamore lace bug nymphs [1]; 0.1 μg/μl,0.026
same,"Chi-square value, choice of nymphs",sycamore lace bug nymphs [1]; 1 μg/μl,0.048
